Reference: patent publication US20140357512A1, “HISTONE DEACETYLASE (HDAC) BIOMARKERS IN MULTIPLE MYELOMA” (priority 2013, published 2014)

Tested on: human myeloma cell line MM.1S
Assay: SILAC acetylated-lysine peptide profiling, HDAC inhibitor vs DMSO (light/heavy ratio)
Assay type: cell-based
From the text: An embodiment of the invention comprises utilizing the SILAC method in order to quantitate changes in protein expression between two or more populations of cells. The SILAC method is a technique based on mass spectrometry that detects differences in protein abundance among samples using non-radioactive isotopic labeling. The SILAC method is known in the art, and described in detail in Ong et al., “Stable Isotope Labeling by Amino Acids in Cell Culture, SILAC, as a Simple and Accurate Approach to Expression Proteomics”, Molecular & Cellular Proteomics, vol. 1, pp. 376-386 (2002), which is incorporated herein by reference in its entirety.
Briefly, the SILAC method involves growing two populations of cells in cell culture. The first population of cells is grown in growth media containing normal amino acids (“normal media”). The second population of cells is grown in media lacking a standard essential amino acid (such as lysine), but is then supplemented with a non-radioactive, isotopically labeled form of that essential amino acid (such as lysine labeled with ^13C atoms, rather than normal ^12C atoms), which is called “heavy media”. When the two populations of cells are each growing in the medium, they incorporate the amino acids into all of their proteins. The growth of cells maintained in the heavy media is no different from that in normal media. All peptides containing the heavy amino acids are heavier than their normal counterparts. The cells from each of the two populations of cells are lysed. The lysates from each of the two cell populations are then combined. The combined cell lysates are then analyzed by mass spectrometry. Pairs of chemically identical peptides of different stable isotope composition can be differentiated in a mass spectrometer due to their difference in mass. The ratio of peak intensities in the mass spectrum for such peptide pairs reflects the abundance ratio for the two proteins.
This example describes SILAC studies that were performed to compare the effects of three different HDAC inhibitors (Compound A, Compound B, and tubastatin A) to a control on a human multiple myeloma cell line. The HDAC inhibitors were also compared amongst themselves to determine differences in their effects.
A human myeloma cell line MM.1S was grown using either ^12C (light) or ^13C (heavy) lysine containing culture medium. The “heavy” cells were treated with DMSO as the control, and the “light” cells were treated with a single HDAC inhibitor at 37° C. for 6 hours. The heavy and light cells were lysed, and the lysates were mixed in 1:1 ratio and digested with the protease trypsin. The acetylated lysine containing peptides (due to the action of the HDAC inhibitor) in the digested peptide pool were captured by a non-specific anti-acetylated lysine antibody cocktail (the antibodies identify both light and heavy acetylated peptides), and subjected to mass spectrometry analysis in order to identify thousands of individual peptides.
Thousands of peptides were identified in pairs (^12C and ^13C) due to their known mass differences. The amino acid sequence and quantitative ratio (Light/Heavy) of a given peptide in two differentially treated cell lysates were then determined and annotated with their possible protein (gene) sources.
As stated above, three HDAC inhibitors (Compound A, Compound B, and Tubastatin A) were used. Thus, the SILAC method was performed three times, with a different HDAC inhibitor compared to a control each time. Accordingly, there are three pairs of quantitative data in the table below, i.e., Compound A:DMSO, Compound B:DMSO, and Tubastatin A:DMSO. A cut-off of 1.30 fold of change (increase or decrease) was then used to determine “changed” or “+” in the table, and any peptides with a fold of change less than 1.3 fold were determined to be “unchanged” or “0” in the table. Those peptides that were not identified were marked as “NA” in the table. […]

## CN1CCc2c(c3ccccc3n2Cc2ccc(C(=O)NO)cc2)C1 [Tub A]
GART [156], log 2 scale, drug vs DMSO
  L/H ratio of acetylated peptide ASGLAAGK(ac)GVIVAK (SEQ ID NO: 37): 0.46
GDASK(ac)EDIDTAMK (SEQ ID NO: 161), Isoform 1 of Hydroxyacyl-coenzyme A dehydrogenase mitochondrial [241], HADH
  light to heavy ratio (L/H ratio) of acetylated peptide, log 2 scale: 0.47
GDGTGGK(ac)SIYGER (SEQ ID NO: 196), Peptidyl-prolyl cis-trans isomerase B [116], PPIB
  light to heavy ratio (L/H ratio) of acetylated peptide, log 2 scale: −0.54
GFAFVTFDDHDSVDK(ac)IVIQK (SEQ ID NO: 165), Isoform A1-B of Heterogeneous nuclear ribonucleoprotein A1 [161], HNRNPA1
  light to heavy ratio (L/H ratio) of acetylated peptide, log 2 scale: −0.53
GFGGK(ac)YGVER (SEQ ID NO: 162), Hematopoietic lineage cell-specific protein [123], HCLS1
  light to heavy ratio (L/H ratio) of acetylated peptide, log 2 scale: 0.77
GHLENNPALEK(ac)LLPHIR (SEQ ID NO: 208), 60S acidic ribosomal protein P0 [77], RPLP0
  light to heavy ratio (L/H ratio) of acetylated peptide, log 2 scale: −0.48
GIVK(ac)DIIHDPGR (SEQ ID NO: 207), 60S ribosomal protein L8 [46], RPL8
  light to heavy ratio (L/H ratio) of acetylated peptide, log 2 scale: −0.54
GLFIIDDK(ac)GILR (SEQ ID NO: 197), Peroxiredoxin-1 [136], PRDX1
  light to heavy ratio (L/H ratio) of acetylated peptide, log 2 scale: −0.77
GLSSLLYGSIPK(ac)AAVR (SEQ ID NO: 220), Tricarboxylate transport protein mitochondrial [97], SLC25A1
  light to heavy ratio (L/H ratio) of acetylated peptide, log 2 scale: 0.44
GNB2L1 [175], log 2 scale, drug vs DMSO
  L/H ratio of acetylated peptide LVK(ac)VWNLANCK (SEQ ID NO: 39): −0.70
GNB2L1 [271], log 2 scale, drug vs DMSO
  L/H ratio of acetylated peptide IIVDELK(ac)QEVISTSSK (SEQ ID NO: 38): −0.62
GPIGSIGPK(ac)GIPGEDGYR (SEQ ID NO: 146), Isoform 1 of Collagen alpha-3(VI) chain [2052], COL6A3
  light to heavy ratio (L/H ratio) of acetylated peptide, log 2 scale: −0.80
GSK(ac)K(ac)AVTK (SEQ ID NO: 490), Histone H2B type 2-E [16:17], HIST2H2BE
  L/H ratio of acetylated peptide: 0.00 log 2
GTPBP4 [7], log 2 scale, drug vs DMSO
  L/H ratio of acetylated peptide (ac)AHYNFK(ac)K (SEQ ID NO: 40): −0.38
GTVRPANDFNPDADAK(ac)ALR (SEQ ID NO: 130), Annexin A6 [370], ANXA6
  light to heavy ratio (L/H ratio) of acetylated peptide, log 2 scale: 0.44
GYGFGLIK(ac)LDLK (SEQ ID NO: 465), Voltage-dependent anion-selective channel protein 1 [28], VDAC1
  L/H ratio of acetylated peptide: 0.00 log 2
GYLTK(ac)EDLR (SEQ ID NO: 216), Protein S100-A10 [28], S100A10
  light to heavy ratio (L/H ratio) of acetylated peptide, log 2 scale: 1.00
Galectin-1 [13], gene LGALS1, inhibitor:DMSO
  light to heavy ratio (L/H ratio) of acetylated peptide (ac)ACGLVASNLNLK(ac)PGECLR (SEQ ID NO: 575): 0.00 log 2
Glutamate dehydrogenase 1 mitochondrial [503], gene GLUD1, inhibitor:DMSO
  light to heavy ratio (L/H ratio) of acetylated peptide ISGASEK(ac)DIVHSGLAYTMER (SEQ ID NO: 543): 0.00 log 2
Glyceraldehyde-3-phosphate dehydrogenase [263], gene GAPDH, inhibitor:DMSO
  light to heavy ratio (L/H ratio) of acetylated peptide VVK(ac)QASEGPLK (SEQ ID NO: 597): 0.00 log 2
Guanine nucleotide-binding protein G(olf) subunit alpha [55], gene GNAL, drug:DMSO
  light to heavy ratio (L/H ratio), log 2 scale, acetylated peptide LLLLGAGESGK(ac)STIVK (SEQ ID NO: 769): 0.00
H2AFV [5:8], log 2 scale, drug vs DMSO
  L/H ratio of acetylated peptide AGGK(ac)AGK(ac)DSGK (SEQ ID NO: 15): 0.47
HADHA [406], log 2 scale, drug vs DMSO
  L/H ratio of acetylated peptide GQQQVFK(ac)GLNDK (SEQ ID NO: 41): 0.46
HEXB [161], log 2 scale, drug vs DMSO
  L/H ratio of acetylated peptide EPVAVLK(ac)ANR (SEQ ID NO: 9): −0.58
HIK(ac)ENDYYTPTGEFR (SEQ ID NO: 227), Dolichyl-diphosphooligosaccharide--protein glycosyltransferase subunit STT3A [613], STT3A
  light to heavy ratio (L/H ratio) of acetylated peptide, log 2 scale: −0.44
HIST1H2BO [6:12], log 2 scale, drug vs DMSO
  L/H ratio of acetylated peptide PDPAK(ac)SAPAPK(ac)K (SEQ ID NO: 16): 0.47
HK(ac)DIDILIVR (SEQ ID NO: 178), Isocitrate dehydrogenase [NAD] subunit gamma mitochondrial [159], IDH3G
  light to heavy ratio (L/H ratio) of acetylated peptide, log 2 scale: −1.00
HLA-B associated transcript 1 [188], gene SNORD84, DDX39B, inhibitor:DMSO
  light to heavy ratio (L/H ratio) of acetylated peptide SLNLK(ac)HIK (SEQ ID NO: 607): 0.00 log 2
HMGB2 [30], log 2 scale, drug vs DMSO
  L/H ratio of acetylated peptide K(ac)HPDSSVNFAEFSK (SEQ ID NO: 42): −0.48
HNRNPA3 [29], log 2 scale, drug vs DMSO
  L/H ratio of acetylated peptide RGEEGHDPK(ac)EPEQLR (SEQ ID NO: 43): −0.45
HNRNPM [83], log 2 scale, drug vs DMSO
  L/H ratio of acetylated peptide AFITNIPFDVK(ac)WQSLK (SEQ ID NO: 44): −0.48
HNRNPM [134], log 2 scale, drug vs DMSO
  L/H ratio of acetylated peptide AAEVLNK(ac)HSLSGRPLK (SEQ ID NO: 3): −0.87
HNRNPR [341], log 2 scale, drug vs DMSO
  L/H ratio of acetylated peptide VK(ac)VLFVR (SEQ ID NO: 45): −0.77
HNRNPU [246], log 2 scale, drug vs DMSO
  L/H ratio of acetylated peptide GYFEYIEENK(ac)YSR (SEQ ID NO: 46): −0.60
HNRNPU [497], log 2 scale, drug vs DMSO
  L/H ratio of acetylated peptide TTWVTK(ac)HAAENPGK (SEQ ID NO: 47): −0.56
HSP90B1 [97], log 2 scale, drug vs DMSO
  L/H ratio of acetylated peptide NK(ac)EIFLR (SEQ ID NO: 52): −1.00
HSP90B1 [114], log 2 scale, drug vs DMSO
  L/H ratio of acetylated peptide […](ac)IR (SEQ ID NO: 49): −0.53
HSP90B1 [161], log 2 scale, drug vs DMSO
  L/H ratio of acetylated peptide EELVK(ac)NLGTIAK (SEQ ID NO: 48): −0.60
HSP90B1 [455], log 2 scale, drug vs DMSO
  L/H ratio of acetylated peptide ETLQQHK(ac)LLK (SEQ ID NO: 50): −0.74
HSP90B1 [479], log 2 scale, drug vs DMSO
  L/H ratio of acetylated peptide IADDK(ac)YNDTFWK (SEQ ID NO: 51): −0.78
HSPA5 [96], log 2 scale, drug vs DMSO
  L/H ratio of acetylated peptide NQLTSNPENTVFDAK(ac)R (SEQ ID NO: 54): −0.74
HSPA5 [213], log 2 scale, drug vs DMSO
  L/H ratio of acetylated peptide […](ac)R (SEQ ID NO: 53): −0.54
HSPA8 [71], log 2 scale, drug vs DMSO
  L/H ratio of acetylated peptide […](ac)R (SEQ ID NO: 55): −0.48
Heat shock 70 kDa protein 1A/1B [71], HSPA1B, HSPA1A, drug:DMSO
  light to heavy ratio (L/H ratio) of acetylated peptide NQVALNPQNTVFDAK(ac)R (SEQ ID NO: 267): 0.59 log 2
